Tests used:
[1] = system: hESC-derived non-adherent hematopoietic progenitor cells; assay: Cell cycle analysis (EdU/propidium iodide flow cytometry); assay type: cell-based, human; settings: Day 6+5, SR-1 or TCDD, n=3
Description: FIG. 10A. Non-adherent hematopoietic progenitor cells derived from hESCs were cultured in the presence of DMSO, SR-1, and TCDD until Day 6+5. Cell cycle phase was assessed using flow cytometry to determine the total percentage of G0/G1)(EdU^−PI^lo, S-phase (EdU^+PI^+), or G2/M (EdU^−PI^hi). Representative flow cytometry plots are shown. FIG. 10B. Quantification of cell cycle analysis, n=3, *p<0.05, **p<0.01, ***p<0.001 as assessed by two-way ANOVA+Tukey-Kramer multiple comparisons post-hoc test.
Spin EBs were differentiated into hemato-endothelial cells with non-adherent cells harvested on Day 6+5. Cells were cultured in a 24-well plate and harvested after 1 week for flow cytometry analysis. Cells were co-stained with anti-human CD34-PECy7 to monitor proliferation of HSPCs. For cell cycle analysis, Day 6+5 non-adherent cells derived from EBs were harvest and monitored for S-phase using the Click-iT EdU Alex Fluor 647 flow cytometry assay kit per manufacturer instructions. Prior to flow cytometry, cells were counterstained with 50 μg/mL propidium iodide supplemented with 100 μg/mL RNAse A (New England BioLabs, Ipswich, Mass.).

[2] = system: hESC-derived hematopoietic cells; assay: qRT-PCR of lymphoid-specific gene expression; assay type: cell-based, human; parameters: expression of TBX21/TBET, fold vs DMSO-treated control / expression of EOMES, fold vs DMSO-treated control: concentration or dose not given beside the values; settings: Day 11+28
Description: FIG. 13A. Schema of hESC differentiation into lymphoid cells as spin-embryoid bodies (spin-EBs). hESCs are made into spin-EBs at Day 0 and cultured in Stage 1 conditions with defined cytokines to promote mesoderm development for 11 days. At Day 11, spin-EBs are transferred onto OP9-DL1 in the presence of NK cell differentiation media (NKDM) to promote lymphoid differentiation. Cells are treated beginning at Day 11+0 with either 1 μM SR-1, 10 nM TCDD, or DMSO vehicle control with media exchanges and/or harvesting performed every week for up to 4 weeks. FIG. 13B. At Day 11, differentiated spin-EBs (photo) are phenotyped for CD34^+CD45^+ expression and transferred to OP9-DL1 stroma in NKDM. Non-adherent hematopoietic cells cultured either in the presence of DMSO, SR-1, or TCDD were assessed for developing NK cell immunophenotype based on CD56^+CD45^+ expression at Days 11+21, and 11+28; representative flow cytometry plots from one differentiation are shown. FIG. 13C. Quantification of fold-change in total percentage of CD56^+CD45^+ cells at both Day 11+21 and Day 11+28 when treated with DMSO, SR-1, or TCDD. SR-1 and TCDD treatments for each differentiation are normalized to DMSO controls. n=3 independent differentiation experiments, error bars represent SEM, *p<0.05 as assessed with two-way ANOVA+Tukey-Kramer multiple comparisons post-hoc test. FIG. 13D. Non-adherent hematopoietic progenitor cells derived from hESCs differentiated in the presence of SR-1, TCDD, or DMSO controls were harvested at Day 11+28 and probed for gene expression by quantitative real-time PCR (qRT-PCR). For each gene, Ct values were normalized to GAPDH at each time point and data is presented as relative fold-change to DMSO treated controls. n=3, error bars represent SEM, *p<0.05, #p<0.01 using student's t-test. FIG. 13E. Non-adherent hematopoietic progenitor cells derived from hESCs differentiated in the presence of SR-1, TCDD, or DMSO controls were harvested at Day 11+28 and assessed for CD107a expression following 4 hours of co-culture with K562 target cells at 2:1 effector:target ratio. SSC: side scatter. Representative flow cytometry plots are shown from one experiment. FIG. 13F. Quantification of percentage of CD107a^+ cells when treated with DMSO, SR-1, or TCDD at Day 11+28, n=2-3 replicates.
Spin-EBs were generated as described above (see also Knorr et al. Stem Cells Dev. 2013; 22(13):1861-9; Ni et al. Embryonic Stem Cell Immunobiol. Methods Protoc. Methods Mol. Biol. 2013; 1029:33-41; Hermanson et al. Stem Cells. 2016; 34(1):93-101). Following 11 days of mesoderm conditioning (Day 11), spin-EBs were collected and analyzed by flow cytometry to assess hematopoietic progenitor cell potential (see flow cytometry methods for antibodies used) (FIG. 4A). Spin-EBs yielding >30% CD34^+CD45^+ cells were transferred onto 24-well plates coated with irradiated OP9-DL1 cells (as described in Martin et al. Blood. 2008; 112(7):2730-7; La Motte-Mohs et al. Blood. 2005; 105(4):1431-9) (now defined as Day 11+0). EBs and OP9-DL1 were co-cultured in NK differentiation media (NKDM) supplemented initially with SCF, IL-15, IL-7, Flt3-L (all R&D Systems), and IL-3 (PeproTech) for one week; DMSO, SR-1, or TCDD were also added at Day 11+0. Every week, a one-half media change with NKDM supplemented with SCF, IL-15, IL-7, Flt3-L, and drugs was performed. hESCs were differentiated for four additional weeks (Day 11+28) and non-adherent cells were harvested for analysis. […]

Structure (SMILES) | percentage of cells in G0/G1 phase (EdU−PIlow) [1] | percentage of cells in S-phase (EdU+PI+) [1] | expression of EOMES, fold vs DMSO-treated control [2] [fold] | expression of TBX21/TBET, fold vs DMSO-treated control [2] [fold] | expression of ID2, fold vs DMSO-treated control [2] [fold]
Clc1cc2c(cc1Cl)Oc1cc(Cl)c(Cl)cc1O2 [TCDD, 2,3,7,8-tetrachlorodibenzo-p-dioxin] | 25.8±0.34% | 38.2%±1.03 | 1.84±0.11 | 1.56±0.07 | 
CC(C)n1cnc2c(NCCc3ccc(O)cc3)nc(-c3csc4ccccc34)nc21 [SR-1, StemReginin-1] | 43.7%±1.82 | 38.2%±1.00 | 5.12±0.52 | 3.44±0.55 | 2.49±0.003

Source: patent US20170121683A1, “ARYL HYDROCARBON RECEPTOR DISRUPTION AND ENHANCEMENT” (priority 2015, published 2017)
